Laboratory results from patent US11090313B2, “Methods for inhibiting muscle atrophy” (UNIVERSITY OF IOWA RESEARCH FOUNDATION, priority 2010, dated 2021).
“Also recorded” adds a separate entry of the source.

Columns and labels:
Type in all cases: in vivo, mouse
mice [1] = experiment: High fat diet with ursolic acid and/or naringenin; details: 5 weeks
Method: To determine this, weight-matched mice were provided ad libitum access to standard (Harlan Teklad formula 7013), high fat diet (HFD; Harlan Teklad formula TD93075), or HFD containing varying concentrations of ursolic acid (0.15%) and/or naringenin (0.5% or 1.5%). After the mice consumed these diets for 5 weeks, fasting blood glucose, total body weight, fat mass, liver weight, grip strength, and skeletal muscle weight was measured.

mice [2] = experiment: Immobilization-induced skeletal muscle atrophy model (stapled tibialis anterior); details: i.p. twice daily
Method: To test this, a mouse model of immobilization-induced skeletal muscle atrophy was used: mice were administered vehicle (corn oil) or varying doses of ursolic acid (positive control) or betulinic acid via intraperitoneal injection twice a day for two days. One tibialis anterior (TA) muscle was immobilized with a surgical staple, leaving the contralateral mobile TA as an intra-subject control. The vehicle or the same dose of ursolic acid or betulinic acid was continuously administered via i.p. injection twice daily for six days before comparing weights of the immobile and mobile TAs.
To test this, mice were administered vehicle (corn oil), ursolic acid (200 mg/kg), naringenin (200 mg/kg), or the combination of ursolic acid and naringenin (each at 200 mg/kg) via i.p injection twice a day for two days. One tibialis anterior (TA) muscle was immobilized with a surgical staple, leaving the contralateral mobile TA as an intrasubject control. Vehicle or the same doses of ursolic acid and/or naringenin was continuously administered via i.p. injection twice daily for six days before comparing weights of the immobile and mobile TAs.
To test this, mice were administered vehicle (corn oil) or tomatidine (50, 100 or 200 mg/kg) via i.p injection twice a day for two days. One tibialis anterior (TA) muscle was immobilized with a surgical staple, leaving the contralateral mobile TA as an intrasubject control. Vehicle or the same doses of tomatidine was administered via i.p. injection twice daily for six days before comparing weights of the immobile and mobile TAs. […] The same protocol was used to compare the effects of vehicle (corn oil) and tomatidine (5, 15 or 50 mg/kg) on immobilization-induced muscle atrophy.

[3] = test system: extensor digitorum longus and peroneus muscles; experiment: Ex vivo specific tetanic force of muscles from mice fed ursolic acid
Source text: Briefly, six-week old male C57BL/6 mice were provided either standard diet or diet containing 0.27% ursolic acid for 16 weeks before being euthanized. The lower hindlimb was removed (by transsecting the upper hindlimb mid-way through the femur), and placed in Krebs solution aerated with 95% 02 and 5% C02. The gastrocnemius, soleus and tibialis anterior muscles, as well as the distal half of the tibia and fibula were then removed and discarded, leaving the extensor digitorum longus and peroneus muscles with their origins and insertions intact. A suture was placed through the proximal tendon and secured to the distal femur fragment. This ex vivo preparation was then mounted vertically in a water jacket bath (Aurora Scientific 1200A Intact Muscle Test System, filled with aerated Krebs solution) by attaching the suture to a servo-controlled lever (superiorly) and clamping the metatarsals (inferiorly). Passive muscle force was adjusted to a baseline of 1 g, and then muscles were stimulated with supramaximal voltage (80 V) at 100 Hz. The mean time from euthanasia to maximal force measurements was 10 min. After force measurements, muscles were removed and weighed in order to calculate specific titanic force. […] Data are means±SEM from 5-6 mice per diet. P-values were determined with a t-test.

C57BL/6 mice = experiment: Denervation-induced skeletal muscle atrophy model
[4] = HFD with ursolic acid 0.15% or naringenin 0.5% or 1.5%
[5] = 0.27% ursolic acid diet 16 weeks vs standard diet

For `C[C@H]1[C@H](C)CC[C@]2(C(=O)O)CC[C@]3(C)C(=CC[C@@H]4[C@@]5(C)CC[C@H](O)C(C)(C)[C@@H]5CC[C@]43C)[C@H]12` [ursolic acid], the “fasting blood glucose in high fat fed mice” value (mice [1]; HFD with ursolic acid 0.15% and/or naringenin 0.5% or 1.5%) was “partially prevented”, the “grip strength in high fat fed mice” value (mice [1]; [4]) was “increased strength to a greater extent than naringenin” and the “skeletal muscle weight in high fat fed mice” value (mice [1]; [4]) was “increased muscle weight”. The “dose of maximal inhibition of immobilization-induced muscle atrophy” value (mice [2]) was 200 mg/kg, the “immobilization-induced muscle atrophy (weights of immobile vs mobile TA)” value (mice [2]; 2 days before and 6 days after immobilization, ursolic acid and betulinic acid varying doses, naringenin 200 mg/kg, tomatidine 5-200 mg/kg) was “reduced muscle atrophy in a dose-dependent manner; also recorded: reduces immobilization-induced skeletal muscle atrophy” and the maximal tetanic force [3, 5] was “did not differ between the two groups”. For the same compound, the “muscle weight (extensor digitorum longus and peroneus)” value [3, 5] was “did not differ between the two groups”, the “specific force generated by muscles ex vivo” value ([3]; 0.27% ursolic acid diet 16 weeks, 80 V, 100 Hz) was “increased the specific force generated by muscles ex vivo” and the “denervated skeletal muscle fiber diameter (gastrocnemius and TA)” value (C57BL/6 mice; ursolic acid 200 mg/kg i.p. twice daily 7 days) was “increase in the size of denervated skeletal muscle fiber diameter”. For the same compound, the “denervation-induced muscle loss (denervated/innervated lower hindlimb muscle weight)” value (C57BL/6 mice; ursolic acid 200 mg/kg i.p. twice daily 7 days after sciatic nerve transsection) was “significantly decreased denervation-induced muscle loss”.
